Inconclusive results and toxic doses are left out. Rule for the calls: active = survival T/C of 150% or more; inactive = T/C below 125% in these data.
Tested on: P388 leukemia ip, CD2F1 mice, survival T/C
Experiment: NCI In Vivo Anticancer Drug Screen. Data for tumor model P388 Leukemia (intraperitoneal) in CD2F1 (CDF1) mice
Conditions: endpoint: median survival time, higher = longer survival
Outline: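 Mice carrying the transplanted tumor received test compound or vehicle. Survival was recorded in each group, and the value is the treated-group measurement divided by that of the vehicle-treated control group.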

[1] = dose: 12.5 mg/kg/injection, schedule: Q01DX005 (ip), vehicle: saline with Tween-80
[2] = dose: 100.0 mg/kg/injection, schedule: Q01DX009 (ip), vehicle: saline
[3] = dose: 200.0 mg/kg/injection, schedule: Q01DX009 (ip), vehicle: saline
[4] = dose: 50.0 mg/kg/injection, schedule: Q01DX009 (ip), vehicle: saline with Tween-80
[5] = dose: 100.0 mg/kg/injection, schedule: Q01DX009 (ip), vehicle: saline with Tween-80
[6] = dose: 200.0 mg/kg/injection, schedule: Q01DX009 (ip), vehicle: saline with Tween-80
[7] = dose: 25.0 mg/kg/injection, schedule: Q01DX009 (ip), vehicle: saline with Tween-80

Measured: T/C

Nc1[nH]c(=S)nc2nc[nH]c12
inactive: dose: 6.25 mg/kg/injection, schedule: Q01DX005 (ip), vehicle: saline with Tween-80 103 % of control | [1] 100 % of control

CC1=C(c2ccccc2)C2(c3ccccc3)[N-][n+]3c(ccc4ccccc43)C2(C)C1=O (stereo not given)
inactive: dose: 50.0 mg/kg/injection, schedule: Q01DX005 (ip), vehicle: Klucel (hydroxypropylcellulose) (HPC) 97 % of control | dose: 100.0 mg/kg/injection, schedule: Q01DX005 (ip), vehicle: Klucel (hydroxypropylcellulose) (HPC) 97 % of control

C=C(C)CC(C)/C(=N\N(C)C)c1ccccc1 (stereo not given)
inactive: dose: 50.0 mg/kg/injection, schedule: Q01DX009 (ip), vehicle: saline 98 % of control | [2] 100 % of control | [3] 100 % of control

Cc1cc(C)cc(CSCc2c(CSCc3cc(C)cc(C)c3)c(CSCc3cc(C)cc(C)c3)c(CSCc3cc(C)cc(C)c3)c(CSCc3cc(C)cc(C)c3)c2CSCc2cc(C)cc(C)c2)c1
inactive: [4] 102 % of control | [5] 100 % of control | [6] 105 % of control

S=C(NNc1nnc(-c2ccccc2)c(-c2ccccc2)n1)Nc1ccc(Br)cc1
inactive: [1] 97 % of control | dose: 25.0 mg/kg/injection, schedule: Q01DX005 (ip), vehicle: saline with Tween-80 90 % of control | dose: 50.0 mg/kg/injection, schedule: Q01DX005 (ip), vehicle: saline with Tween-80 97 % of control | dose: 200.0 mg/kg/injection, schedule: Q01DX005 (ip), vehicle: saline with Tween-80 93 % of control

Cc1ccc(S(=O)(=O)N/N=C(\Cc2ccccc2)c2ccc(Br)cc2)cc1
inactive: [4] 99 % of control | [5] 99 % of control | [2] 98 % of control | [6] 90 % of control | [3] 98 % of control

CCc1nc2nc(C)cc(C)n2n1
inactive: [7] 100 % of control | [4] 97 % of control | [5] 103 % of control

O=S(OC(c1ccccc1)(C(F)(F)F)C(F)(F)F)OC(c1ccccc1)(C(F)(F)F)C(F)(F)F
inactive: dose: 32.0 mg/kg/injection, schedule: Q01DX009 (ip), vehicle: Klucel (hydroxypropylcellulose) (HPC) 97 % of control | dose: 64.0 mg/kg/injection, schedule: Q01DX009 (ip), vehicle: Klucel (hydroxypropylcellulose) (HPC) 101 % of control | dose: 128.0 mg/kg/injection, schedule: Q01DX009 (ip), vehicle: Klucel (hydroxypropylcellulose) (HPC) 101 % of control

COC(=O)C1(CC(=O)C=C(C)C)NC(=S)NC(=O)C1C#N (stereo not given)
inactive: dose: 60.0 mg/kg/injection, schedule: Q01DX005 (ip), vehicle: saline 98 % of control | dose: 120.0 mg/kg/injection, schedule: Q01DX005 (ip), vehicle: saline 103 % of control | dose: 240.0 mg/kg/injection, schedule: Q01DX005 (ip), vehicle: saline 98 % of control

Cc1nc2ccccc2nc1CBr
inactive: dose: 5.56 mg/kg/injection, schedule: Q01DX009 (ip), vehicle: saline with Tween-80 110 % of control | dose: 8.33 mg/kg/injection, schedule: Q01DX009 (ip), vehicle: saline with Tween-80 120 % of control | dose: 18.7 mg/kg/injection, schedule: Q01DX009 (ip), vehicle: saline with Tween-80 120 % of control

COCCCOC(=O)NCCCCC([NH-])C(=O)O.COCCCOC(=O)NCCCCC([NH-])C(=O)O.[Cu+2] (stereo not given)
inactive: dose: 6.25 mg/kg/injection, schedule: Q01DX005 (ip), vehicle: Klucel (hydroxypropylcellulose) (HPC) 100 % of control | dose: 12.5 mg/kg/injection, schedule: Q01DX005 (ip), vehicle: Klucel (hydroxypropylcellulose) (HPC) 87 % of control | dose: 25.0 mg/kg/injection, schedule: Q01DX005 (ip), vehicle: Klucel (hydroxypropylcellulose) (HPC) 89 % of control

C1CN2CCC1C1(C2)SSC2(CN3CCC2CC3)S1 (stereo not given)
inactive: dose: 6.25 mg/kg/injection, schedule: Q01DX009 (ip), vehicle: saline 100 % of control | dose: 12.5 mg/kg/injection, schedule: Q01DX009 (ip), vehicle: saline 95 % of control | dose: 25.0 mg/kg/injection, schedule: Q01DX009 (ip), vehicle: saline 95 % of control

CSCc1ccc(Cl)cc1N (tested in a mixture with another compound)
inactive: [7] 103 % of control | [4] 106 % of control | [5] 106 % of control

— PubChem BioAssay AID330 (DTP/NCI, 2004)
